Reference: paper PMC5789826, “Structure-guided design of an Hsp90β N-terminal isoform-selective inhibitor” (Nature Communications, 2018)
“And” between values parts separate entries of the source, which are not always exact repeats. Equal entries are not always repeated. Where two headings read alike, the source gives them in different places. Each block holds one molecule with its values, some of them ahead of it.

Columns and labels:
Hsp90α = Hsp90α (Homo sapiens, UniProt P07900); assay: Fluorescence polarization assay (FITC-GDA tracer displacement), Hsp90α; assay type: binding; conditions: for % Polarization to DMSO control: triplicate wells
Description: (§1) Compounds were tested in triplicate wells (1% DMSO final concentration). For each plate, wells containing buffer only (background), tracer in buffer only (low polarization control), and protein and tracer in buffer with 1% DMSO (high polarization control) were included. Plates were incubated at 4 °C with rocking for 24 h. […] Polarization values were correlated to % tracer bound and compound concentrations. The concentration at which the tracer was 50% displaced by the inhibitor was determined using Graphpad Prism.

Hsp90β = Hsp90β (Homo sapiens, UniProt P08238); assay: Fluorescence polarization assay (FITC-GDA tracer displacement), Hsp90β; assay type: binding; conditions: for selectivity for Hsp90β: Hsp90β versus Hsp90α, from Kd values; for % Polarization to DMSO control: triplicate wells
Description: as §1

[1] = fluorescence polarization, apparent Kd, read-out: Kd Hsp90α
[2] = fluorescence polarization, apparent Kd, read-out: Kd Hsp90β

Sequence of Hsp90β (P08238 whole entry): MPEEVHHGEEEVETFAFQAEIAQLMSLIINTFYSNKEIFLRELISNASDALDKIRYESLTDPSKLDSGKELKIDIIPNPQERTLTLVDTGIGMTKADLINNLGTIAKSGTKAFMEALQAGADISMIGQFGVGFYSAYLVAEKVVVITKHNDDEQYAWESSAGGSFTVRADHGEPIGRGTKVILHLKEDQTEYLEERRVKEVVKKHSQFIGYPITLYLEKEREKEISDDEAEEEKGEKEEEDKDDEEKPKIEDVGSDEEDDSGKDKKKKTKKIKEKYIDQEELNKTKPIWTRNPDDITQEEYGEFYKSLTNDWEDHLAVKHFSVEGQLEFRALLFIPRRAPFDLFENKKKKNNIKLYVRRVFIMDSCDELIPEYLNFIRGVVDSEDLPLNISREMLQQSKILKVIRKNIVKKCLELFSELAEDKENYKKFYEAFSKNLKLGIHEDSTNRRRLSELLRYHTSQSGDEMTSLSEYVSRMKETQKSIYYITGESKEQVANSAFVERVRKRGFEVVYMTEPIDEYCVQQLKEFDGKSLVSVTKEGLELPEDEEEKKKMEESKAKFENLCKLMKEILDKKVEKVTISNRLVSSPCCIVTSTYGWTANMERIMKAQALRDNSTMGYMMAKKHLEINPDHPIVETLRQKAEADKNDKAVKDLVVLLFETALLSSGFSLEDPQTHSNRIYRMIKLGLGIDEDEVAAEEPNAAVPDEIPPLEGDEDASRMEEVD

SMILES: CC(C)c1cc(C(=O)N2Cc3ccccc3C2)c(O)cc1CC#N [Compound 2]
Kd (Hsp90α): 2.28 ± 0.12 µM
% Polarization to DMSO control (Hsp90α; Suppl Table 9, 2 0.1 μM): 95.62% and 98.23% and 93.53%
% Polarization to DMSO control (Hsp90α; Suppl Table 9, 2 0.5 μM): 78.89% and 78.37% and 75.58%
% Polarization to DMSO control (Hsp90α; Suppl Table 9, 2 1 μM): 66.18% and 68.79% and 67.22%
% Polarization to DMSO control (Hsp90α; Suppl Table 9, 2 5 μM): 22.97% and 29.94%
Kd (Hsp90β): 970 nM
selectivity for Hsp90β (Hsp90β): ~ 2.5 fold
% Polarization to DMSO control (Hsp90β; Suppl Table 8, 2 0.1 μM): 90.36% and 90.17% and 91.52%
% Polarization to DMSO control (Hsp90β; Suppl Table 8, 2 0.5 μM): 65.62% and 68.90% and 70.45%
% Polarization to DMSO control (Hsp90β; Suppl Table 8, 2 1 μM): 47.25% and 50.54% and 49.96%
% Polarization to DMSO control (Hsp90β; Suppl Table 8, 2 5 μM): 12.84% and 16.90% and 23.47%
% Polarization to DMSO control (Hsp90β; Suppl Table 8, 2 10 μM): 4.14% and 8.59% and 10.52%

Kd (Hsp90α): > 25 µM
binding to Hsp90α (Hsp90α; at 10 μM): did not bind
Kd (Hsp90β): > 25000 nM
binding to Hsp90β (Hsp90β; at 10 μM): did not bind
SMILES: COCc1cc(O)c(C(=O)N2Cc3ccccc3C2)cc1C(C)C [Compound 3]

SMILES: CC(C)c1cc(C(=O)N2Cc3ccc(F)cc3C2)c(O)c2cnoc12 [Compound 6b]
% Polarization to DMSO control (Hsp90α; Suppl Table 12, 6b 0.125 μM): 101. 64% and 98.69% and 98.03%
% Polarization to DMSO control (Hsp90α; Suppl Table 12, 6b 0.5 μM): 97.54% and 93.76% and 98.36%
% Polarization to DMSO control (Hsp90α; Suppl Table 12, 6b 1 μM): 98.19% and 97.05% and 96.39%
% Polarization to DMSO control (Hsp90α; Suppl Table 12, 6b 3 μM): 87.85% and 82.27% and 73.25%
% Polarization to DMSO control (Hsp90α; Suppl Table 12, 6b 10 μM): 66.68% and 53.88% and 63.89%
% Polarization to DMSO control (Hsp90α; Suppl Table 12, 6b 25 μM): 41.57% and 41.90% and 42.23%
% Polarization to DMSO control (Hsp90α; Suppl Table 12, 6b 75 μM): 20.07% and 24.50% and 20.73%
Kd (Hsp90α; [1]): 18.2 µM
selectivity over Hsp90α and Grp94 (Hsp90β; Hsp90β versus Hsp90α and Grp94): ~ 50 fold
% Polarization to DMSO control (Hsp90β; Suppl Table 13, 6b 0.125 μM): 80.92% and 79.55% and 79.72%
% Polarization to DMSO control (Hsp90β; Suppl Table 13, 6b 0.5 μM): 44.66% and 45.17%
% Polarization to DMSO control (Hsp90β; Suppl Table 13, 6b 1 μM): 27.05% and 23.28% and 31.32%
Kd (Hsp90β; fluorescence polarization, apparent Kd, value in nM, read-out: Kd Hsp90β): 180 nM
Kd (Hsp90β; [2]): 440 nM

SMILES: CC(C)c1ccc(O)c(C(=O)N2Cc3ccccc3C2)c1 [Compound 1]
% Polarization to DMSO control (Hsp90α; Suppl Table 10, 1 0.5 μM): 84.59% and 83.37% and 82.16%
% Polarization to DMSO control (Hsp90α; Suppl Table 10, 1 1 μM): 70.63% and 71.84% and 71.69%
% Polarization to DMSO control (Hsp90α; Suppl Table 10, 1 5 μM): 31.78% and 33.90% and 37.85%
% Polarization to DMSO control (Hsp90α; Suppl Table 10, 1 10 μM): 22.83% and 17.67% and 25.25%
% Polarization to DMSO control (Hsp90α; Suppl Table 10, 1 25 μM): 16.45% and 15.39% and 18.58%
% Polarization to DMSO control (Hsp90α; Suppl Table 10, 1 50 μM): 11.45% and 12.05% and 8.56%
% Polarization to DMSO control (Hsp90α; Suppl Table 10, 1 100 μM): 9.47% and 8.26%
Kd (Hsp90α; [1]): 3.21 µM
selectivity for Hsp90β (Hsp90β): ~ 2 fold
% Polarization to DMSO control (Hsp90β; Suppl Table 11, 1 0.5 μM): 68.22% and 73.53% and 68.55%
% Polarization to DMSO control (Hsp90β; Suppl Table 11, 1 1 μM): 60.93% and 62.75% and 64.41%
% Polarization to DMSO control (Hsp90β; Suppl Table 11, 1 5 μM): 23.80% and 23.30% and 19.99%
% Polarization to DMSO control (Hsp90β; Suppl Table 11, 1 10 μM): 15.34% and 18.00% and 10.37%
% Polarization to DMSO control (Hsp90β; Suppl Table 11, 1 25 μM): 12.53% and 4.40% and 5.73%
% Polarization to DMSO control (Hsp90β; Suppl Table 11, 1 50 μM): 5.73% and 5.90% and 4.40%
% Polarization to DMSO control (Hsp90β; Suppl Table 11, 1 100 μM): 8.22% and 4.90% and 9.38%
Kd (Hsp90β; [2]): 1630 nM

Kd (Hsp90β; Kd Hsp90β, fluorescence polarization, apparent Kd): 4270 nM
% Polarization to DMSO control (Hsp90β; Suppl Table 5, 5 1 μM): 73.89% and 76.47% and 73.55%
% Polarization to DMSO control (Hsp90β; Suppl Table 5, 5 5 μM): 48.11% and 44.50% and 46.91%
% Polarization to DMSO control (Hsp90β; Suppl Table 5, 5 10 μM): 27.82% and 30.40% and 31.26%
% Polarization to DMSO control (Hsp90β; Suppl Table 5, 5 25 μM): 13.21% and 21.12% and 17.17%
% Polarization to DMSO control (Hsp90β; Suppl Table 5, 5 50 μM): 21.98% and 21.29%
SMILES: CC(C)c1cc(C(=O)N2Cc3ccccc3C2)c(O)c(CO)c1O [Compound 5]

SMILES: CC(C)c1cc(C(=O)N2Cc3ccccc3C2)c(O)cc1C=O [Compound 4]
Kd (Hsp90α; Kd Hsp90α): 1.55 µM and 1.22 µM
